Columns and labels:
[1] = Physical and chemical stability of trifluoroacetate Types A and B and HCl Type I for 1, 2, 4 and 8 weeks; type: physicochemical; details: 25° C./60% RH, 40° C./75% RH and 60° C.; 8 weeks; listed as Trifluoroacetate Type B
Procedure: High Power Liquid Chromatography (HPLC) Method—An Agilent 1260 HPLC with DAD detector was utilized to test solubility or to test purity and stability. […] System suitability was tested by injecting standard solutions five times in each sample sequence, and the relative standard deviation of the peak areas was less than 2%.
Physical and chemical stability evaluation of trifluoroacetate Type A, trifluoroacetate Type B, and HCl Type I was performed at 25° C./60% RH, 40° C./75% RH and 60° C. for 1, 2, 4 and 8 weeks. In the experiments, approximately 20 mg of solid was placed into a 1.5-mL glass vial. The vials were stored under 25° C./60% RH (uncapped), 40° C./75% RH (uncapped) and 60° C. (capped) conditions for 8 weeks. XRPD analysis was then employed to check the crystalline form of the solid, and HPLC was utilized to determine the purity profile at 1, 2, 4 and 8 weeks. […] The solid form change of trifluoroacetate Type A at 2 and 4 weeks was postulated to the air-exposure when the sample was taken out for XRPD characterization.

[2] = Dynamic Vapor Sorption (DVS) water uptake; type: physicochemical; details: for solid form by XRPD after DVS: after DVS experiment
Procedure: Dynamic Vapor Sorption (DVS)—The term “DVS” means the procedure described in below. The relative humidity at 25° C. was calibrated against deliquescence point of LiCl, Mg(NO3)2 and KCl.
The DVS of SCY-078 salts were tested according to the above method, using a 10-20 mg sample size. The DVS was measured using a Surface Measurement Systems (SMS) DVS Intrinsic.

[3] = Kinetic solubility of trifluoroacetate Types A and B and HCl Type I (alternative procedure: SGF, FaSSIF and FeSSIF alternative media, acetate pH 5.5, phosphate pH 6.0 alternative media)
Procedure: An alternative media (“FaSSIF alternative media”) was used to study the trifluoroacetate salts (Type A and B) and the HCl Type I salt. More specifically, the media was prepared by weighing 0.17 g of sodium phosphate monobasic (NaH2PO4, anhydrous), 0.021 g of sodium hydroxide, and 0.31 g of sodium chloride into a 50-mL volumetric flask and was dissolve with approximately 48 mL of purified water. The pH was adjusted to exactly 6.5 using 1 M HCl or 1 M NaOH and diluted to volume with purified water. 0.11 g of SIF powder was then added, stirred and sonicated until all the powder was completely dissolved. The solution was equilibrated for 2 hours at RT before use. The solution can be stored at RT for 48 hours or 4° C. for 7 days and should be equilibrated to RT before use
An alternative media (“FeSSIF alternative media”) was used to study the trifluoroacetate salts (Type A and B) and the HCl Type I salt. More specifically, the media was prepared by transferring 0.41 mL of glacial acid and weighing 0.20 g of sodium hydroxide, 0.59 g of sodium chloride into a 50-mL volumetric flask. This was dissolved with approximately 48 mL of purified water. The pH was adjusted to exactly 5.0 using 1 M HCl or 1 M NaOH and diluted to volume with purified water. 0.56 g of SIF powder was added, stirred and sonicated until all the powder is completely dissolved. The solution can be stored at RT for 48 hours or 4° C. for 7 days and should be equilibrated to RT before use.
Acetate Buffer (pH 5.5) Preparation—The acetate buffer (pH 5.5) used for the trifluoroacetate salts (Type A and B) and the HCl Type I salt was prepared by placing 0.60 g sodium acetate (NaC2H3O2.3H2O) in a 100-mL volumetric flask, adding 3 mL of 2 M acetic acid solution, and then adding purified water to volume.
An alternative media (“phosphate (pH 6.0) alternative media”) was used to study the trifluoroacetate salts (Type A and B) and the HCl Type I salt. More specifically, the media was prepared by dissolving 2.72 g of 0.2 M monobasic potassium phosphate (KH2PO4) in purified water, and diluting with purified water t 100 mL. 0.8 g of 0.2 M sodium hydroxide in purified water was diluted with purified water to 100 mL. Then 50 mL of the 0.2 M monobasic potassium phosphate solution was placed in a 200-mL volumetric flask, 5.6 mL of 0.2 M sodium hydroxide solution was added, and then purified water was added to volume.
The trifluoroacetate salts (Type A and B) and the HCl Type I salt were tested using the following alternative procedure. First, 15 mg, 36 mg or 90 mg solid was weighted into a 4-mL plastic tube, and 3 mL of relevant media was added before leaving the suspension on a rolling incubator (25 r/min). For SCF, 90 mg of solid was used. For FaSSIF, acetate buffer (pH 5.5), and phosphate buffer (pH 6.0), 15 mg solid was used. For FeSSIF, 36 mg of solid was used. 1.0 mL aliquot of the suspension was sampled for centrifugation with the supernatant submitted for HPLC and pH measurement and solid for XRPD characterization at 1 hr, 4 hr and/or 24 hrs.
The solubility of trifluoroacetate Type A, Type B and HCl Type I was measured in SGF at ambient temperature. Approximately 90 mg of solid sample was weighted into a 4-mL centrifuge tube, and 3 mL of SGF buffer was added before leaving the suspension on a rolling incubator (25 r/min). 1.0 mL aliquot of the suspension was sampled for centrifugation (10000 rpm, 3 mins) the supernatant was analyzed by HPLC and pH measurement and solid by XRPD characterization at 1 hr, 4 hr and 24 hrs, respectively.
The solubility of trifluoroacetate Type A, Type B and hydrochloride Type I was measured in the FaSSIF alternative media at ambient temperature. Approximately 15 mg of solid sample was weighted into a 4-mL plastic tube, and 3 mL of the media was added before leaving the suspension on a rolling incubator (25 r/min).

[4] = Chemical and physical stability of SCY-078 salts on storage (25° C./60% RH, 40° C./75% RH, 60° C.); type: physicochemical; details: for physical and chemical stability: Type M 4 days, Type S 1 week
Source text: For all compounds tested other than the trifluoroacetate salts (Type A and B) and the HCl Type I and II salts, the conditions and parameters used for measuring solubility are shown in Table 2A and for measuring stability are showing in Table 3A. The conditions and parameters used for the solubility of the trifluoroacetate salts (Type A and B) and the HCl Type I and II salts are shown in Table 2B and for stability are shown in Table 3B.

[5] = pH value of saturated SCY-078 salt solutions in water; type: physicochemical; details: saturated salt solution in H2O, room temperature; for pH 1 hr: equilibrated 1 hour; for pH 24 hrs: equilibrated 24 hours
Procedure: To test the pH, a solution of each compound was equilibrated at room temperature using a rolling incubator (25 rpm) for 1 hour and 24 hours before measurement.

[6] = 25° C./60% RH, open dish, 1 week
[7] = 40° C./75% RH, open dish, 1 week

Compound | solid form by XRPD after DVS [2] | pH 1 hr [5] | pH 24 hrs [5] | water uptake (DVS) ([2]; 25° C., 80% RH) [%] | also measured
CC(C)[C@@H](C)[C@@]1(C)CC[C@]2(C)[C@H]3CC[C@@H]4[C@@]5(COC[C@]4(C)[C@@H](OC[C@](C)(N)C(C)(C)C)[C@H](n4ncnc4-c4ccncc4)C5)C3=CC[C@@]2(C)[C@@H]1C(=O)O.O=C(O)C(F)(F)F [SCY-078 Trifluoroacetate Type B] | converted to Type A | – | – | – | physical and chemical stability [1]: chemically stable, however, physically unstable; water uptake (DVS) ([2]; 25° C./80% RH): 3.4 wt %; form change of residual solid in FaSSIF alternative media ([3]; FaSSIF alternative media, ambient temperature, listed as Trifluoroacetate Type B): converted to Type A; form change of residual solid in FeSSIF alternative media ([3]; FeSSIF alternative media, ambient temperature, listed as trifluoroacetate Type B): no form change was observed; form change of residual solid in SGF ([3]; SGF, ambient temperature, listed as Trifluoroacetate Type B): converted to Type A; form change of residual solid in acetate buffer ([3]; acetate buffer pH 5.5, ambient temperature, listed as trifluoroacetate Type B): converted to Type A; form change of residual solid in phosphate (pH 6.0) alternative media ([3]; phosphate (pH 6.0) alternative media, ambient temperature, listed as trifluoroacetate Type B): converted to Type A at 24 hrs
CC(C)[C@@H](C)[C@@]1(C)CC[C@]2(C)[C@H]3CC[C@@H]4[C@@]5(COC[C@]4(C)[C@@H](OC[C@](C)(N)C(C)(C)C)[C@H](n4ncnc4-c4ccncc4)C5)C3=CC[C@@]2(C)[C@@H]1C(=O)O.O=C(O)CC(O)(CC(=O)O)C(=O)O [SCY-078 citrate Type A] | No form change | 3.5 | 3.8 | – | time stable when stored ([4]; 25° C. and 60% relative humidity): at least 1 week; Impurity % by HPLC [4, 6]: 0.09%; time stable when stored ([4]; 40° C. and 75% relative humidity): at least 1 week; Impurity % by HPLC [4, 7]: 0.10%; time stable when stored ([4]; 60° C.): at least 1 week; Impurity % by HPLC ([4]; 60° C., closed dish, 1 week): 0.17%; Impurity % by HPLC ([4]; Initial): 0.34%
CC(C)[C@@H](C)[C@@]1(C)CC[C@]2(C)[C@H]3CC[C@@H]4[C@@]5(COC[C@]4(C)[C@@H](OC[C@](C)(N)C(C)(C)C)[C@H](n4ncnc4-c4ccncc4)C5)C3=CC[C@@]2(C)[C@@H]1C(=O)O.O=C(O)CC(O)(CC(=O)O)C(=O)O [SCY-078 citrate Type M] | converts to partially amorphous | – | – | 11.0 | physical and chemical stability ([4]; closed dish 60° C.): impurity of SCY-078 citrate Type M increased; physical and chemical stability ([4]; open dish 25° C., 60% RH): physically and chemically stable; physical and chemical stability ([4]; open dish 40° C., 75% RH): One diffraction peak change and partial crystallinity loss
CC(C)[C@@H](C)[C@@]1(C)CC[C@]2(C)[C@H]3CC[C@@H]4[C@@]5(COC[C@]4(C)[C@@H](OC[C@](C)(N)C(C)(C)C)[C@H](n4ncnc4-c4ccncc4)C5)C3=CC[C@@]2(C)[C@@H]1C(=O)O.O=C(O)CC(O)(CC(=O)O)C(=O)O [SCY-078 citrate Type S] | peak shifts | – | – | 8.2 | physical and chemical stability ([4]; closed dish 60° C.): physically and chemically stable; physical and chemical stability ([4]; open dish 25° C., 60% RH): Diffraction peak shifts were observed; physical and chemical stability ([4]; open dish 40° C., 75% RH): Diffraction peak shifts were observed
CC(C)[C@@H](C)[C@@]1(C)CC[C@]2(C)[C@H]3CC[C@@H]4[C@@]5(COC[C@]4(C)[C@@H](OC[C@](C)(N)C(C)(C)C)[C@H](n4ncnc4-c4ccncc4)C5)C3=CC[C@@]2(C)[C@@H]1C(=O)O.O=C(O)/C=C/C(=O)O [SCY-078 fumarate Type A] | no form change | 4.4 | 3.8 | 2.5 | Impurity % by HPLC [4, 6]: 0.09%; Impurity % by HPLC [4, 7]: 0.10%; Impurity % by HPLC ([4]; 60° C., closed dish, 1 week): 0.10%; Impurity % by HPLC ([4]; Initial): 0.12%
CC(C)[C@@H](C)[C@@]1(C)CC[C@]2(C)[C@H]3CC[C@@H]4[C@@]5(COC[C@]4(C)[C@@H](OC[C@](C)(N)C(C)(C)C)[C@H](n4ncnc4-c4ccncc4)C5)C3=CC[C@@]2(C)[C@@H]1C(=O)O.O=C(O)CNC(=O)c1ccccc1.O=C(O)CNC(=O)c1ccccc1 [SCY-078 hippurate Type B] | converted to SCY-078 hippurate Type A | 4.6 | 4.2 | ~3.5 | –
CC(C)[C@@H](C)[C@@]1(C)CC[C@]2(C)[C@H]3CC[C@@H]4[C@@]5(COC[C@]4(C)[C@@H](OC[C@](C)(N)C(C)(C)C)[C@H](n4ncnc4-c4ccncc4)C5)C3=CC[C@@]2(C)[C@@H]1C(=O)O.CS(=O)(=O)O [SCY-078 mesylate Type A] | no form change | 3.4 | 3.6 | 11.5 | –
CC(C)[C@@H](C)[C@@]1(C)CC[C@]2(C)[C@H]3CC[C@@H]4[C@@]5(COC[C@]4(C)[C@@H](OC[C@](C)(N)C(C)(C)C)[C@H](n4ncnc4-c4ccncc4)C5)C3=CC[C@@]2(C)[C@@H]1C(=O)O.O=P(O)(O)O [SCY-078 phosphate Type A] | no form change | 3.4 | 3.6 | 12.5 | –

Reference: patent publication US20190153024A1, “NOVEL SALTS AND POLYMORPHS OF SCY-078” (priority 2015, published 2019)
